Results from patent US20110027293A1, “METHODS AND COMPOSITIONS FOR THE INHIBITION OF VIRAL INFECTION BY TARGETING INTRACELLULAR TRAFFICKING” (priority 2008, published 2011).

Assays:
MoMLV = assay: GFP expression of cells infected with MoMLV construct with and without EHNA; assay type: cell-based, Moloney murine leukemia virus (MoMLV); conditions: relative to infection in the absence of EHNA; FIG. 15A vs 15C
Method: (§1) The levels of infection are based on the inhibition of GFP expression, which was determined by infection of cells by MoMLV and HCV viral constructs that included cloned GFP. To determine the consequences of dynein inhibition on the viral life cycle, the expression of viral genes was correlated to the expression (or loss of expression) of GFP. Pictured are cells infected with MoMLV and Hepatitis C with and without EHNA-induced dynein inhibition. Brightness is an indication of GFP expression.
(§2) ATPase activity was inhibited using an anti-dynein small organic molecule (erythro-9-(2-hydroxy-3-nonyl)adenine; EHNA) in another set of experiments. EHNA was obtained from A. G. Scientific and dissolved in Dubelco's Modified Eagle's Medium (DMEM). The solution was added to several sets of treated cells with final concentrations of 0.1 μM, 0.2 μM, 0.5 μM, and 1 μM (FIG. 14).
(§3) To determine the consequences of the loss of cytoplasmic dynein motor activity on the viral life cycle, we cloned the green fluorescent protein (GFP) gene into the viral genomes and assessed GFP expression upon loss of cytoplasmic dynein motor activity (FIG. 15).

hepatitis C virus (HCV) = assay: GFP expression of cells infected with HCV construct with and without EHNA; assay type: cell-based; conditions: relative to infection in the absence of EHNA; FIG. 15B vs 15D
Method: as §1, §2, §3

## CCCCCC[C@@H]([C@@H](C)O)n1cnc2c(N)ncnc21 (racemic) [EHNA, erythro-9-(2-hydroxy-3-nonyl)adenine]
MoMLV
  infection by MoMLV (inhibition of GFP expression): inhibits infection
Hepatitis C virus (HCV)
  infection by hepatitis C virus (inhibition of GFP expression): inhibits infection
